Reference: patent US20100063156A1, “ANANDAMIDE” (priority 2006, published 2010)

Tests used:
test animals = settings: introduced into the blood stream; neither decreased nor increased food intake; cited from earlier work
Sprague-Dawley rats = experiment: Food intake in rats after intragastric infusion of anandamide; format: in vivo, rat; settings: for 9-h cumulative food intake: intragastric infusion in sunflower oil, rats food-deprived 15 h, control 27.1 g
Procedure: An experiment was conducted to measure the effect of different levels of anandamide intake on food intake in rats. Thirteen adult male Sprague-Dawley rats (Charles River, Germany) were surgically equipped with a chronic gastric cannula. Animals were individually housed in plastic cages (42×22×36 cm) with stainless steel grid floors in a temperature-controlled (22±2° C.) room. The 12:12-h light-dark cycle was inversed (lights off 09:00 h).
Rats had free access to water and restricted access to ground extruded feed (No. 3436, Provimi Kliba-nafag, Kaiseraugst, Switzerland). To prevent spoilage of food, it was placed in cups at the end of a tunnel (5×10×30 cm) that protruded from the side of the cage, with its bottom 5 cm above the cage floor. Food cups were mounted on electronic balances (Mettler PM 3000, Switzerland) that were interfaced with a computer (Olivetti M 300, Germany). Weights of the food cups were recorded the every 30 s, enabling continuous measurement of spontaneous feeding patterns. Anandamide (98% purity, dissolved in ethanol) was obtained from Cayman Chemical Company, Michigan, USA). It was stored deep-frozen, until the experiment. Than the proper quantity was mixed into sunflower oil.
Before starting the experimental period, rats (394±7 g) were adapted to the restricted food access. One day prior to the test, they were also adapted to infusion of sunflower oil. The experimental period lasted five consecutive days. During the experiment, rats were deprived from food each day for 15 h (18.00-9.00 h). […] Each of these doses was given to three rats. One rat was excluded from the experiment after 2 days, and a spare animal was included.

rats = settings: anandamide introduced by injection (Williams & Kirkham 2002); cited from earlier work

CCCCC/C=C\C/C=C\C/C=C\C/C=C\CCCC(=O)NCCO [anandamide, arachidonyl-ethanolamide]
voluntary food intake (test animals): ineffective
9-h cumulative food intake (Sprague-Dawley rats; 2.5 mg anandamide/d): 25.8 g
food intake compared to the control (Sprague-Dawley rats; 2.5 mg/d, intragastric): did not affect food intake
9-h cumulative food intake (Sprague-Dawley rats; 5.0 mg anandamide/d): 27.6 g
food intake calculated as a mean over the 9-h period (Sprague-Dawley rats; 5.0 mg versus 0 or 2.5 mg anandamide): significantly lower
food intake compared to the control (Sprague-Dawley rats; 5.0 mg, 3 through 6 hours after infusion, P<0.001, difference disappeared later): reduced food intake significantly
9-h cumulative food intake, significance versus other treatments (Sprague-Dawley rats; 7.5 mg anandamide/d versus 0, 2.5 and 5.0 mg): significantly different from the other treatments
9-h cumulative food intake (Sprague-Dawley rats; 7.5 mg anandamide/d): 23.0 g
food intake calculated as a mean over the 9-h period (Sprague-Dawley rats; 7.5 mg versus 0 or 2.5 mg anandamide): significantly lower
food intake compared to the control (Sprague-Dawley rats; 7.5 mg/d, until 9 h post-infusion): lower food intake persisted until 9 h post-infusion
appetite / feeding effect (rats): Appetite stimulating effects were found
